In US5147876A, “2,6-di,2,4,6-, 2,5,6-tri and 2,4,5,6-tetra-substituted pyrimidines, their pharmaceutically acceptable salts, pharmaceutical compositions containing same and their use in the treatment of neurological diseases” (Mitsui Petrochemical Industries, Ltd., priority 1988, dated 1992):

Columns and labels:
Acute toxicity on mice = type: in vivo; settings: mouse, in vivo, ip, 24 hours after administration; read-out: Estimated LD50
Procedure: The acute toxicity of the compounds of the invention was examined by the following method.
Male ddy-strain 5-week old mice, 4-6- per group, were used as experimental animals. Each of the compounds was intraperitoneally (i.p.), and the toxicity of the compound was assessed 24 hours after the administration.

[1] = test system: neuro-2a (mouse neuroblastoma cells); assay: Action on neuro-2a: proportion of cells containing outgrown neurites; type: cell-based; settings: mean ± S.D.
Procedure, shortened: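 Read-out is the percentage of neurite-bearing cells (neurite ≥2× long cell diameter), counted microscopically over more than 200 cells per well. Before fixation and staining, neuro-2a cells (1,000/well, DMEM + 10% FCS) were cultured for one day at 37 °C; up to six compound concentrations, three runs each.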

[2] = test system: NS-20Y (mouse neuroblastoma cells); assay: Activity on NS-20Y cells: appearance of neurites; type: cell-based
Procedure: The effects of the compounds of this invention on neuroblastoma cells were examined by the following method.
Mouse neuro 2a cells in the logarithmic growth period in the Dulbecco's modified Eagle's medium DMEM, containing 100 units/ml of penicillin G sodium and 100 micrograms/ml of streptomycin sulfate]containing 10 % of FCS were seeded in a 48-well plate so that the number of cells was 1,000 cells/well, and cultured for one day in 0.25 ml of the culture fluid in each well in an incubator containing 5 % of carbon dioxide gas in air at 37° C. Then, a 4 % aqueous glutaraldehyde solution in the same amount as a medium (0.25 ml) was added, and the culture fluid was left to stand at room temperature for 2 hours to fix the cells. After washing with water, a 0.05 % aqueous solution of methylene blue was added to stain the cells Under a microscope, the number of cells containing outgrown neurites (cells having at least one neurite with a length of at least two times as large as the long diameter of the cell) was counted visually, and the proportion of these cells in the entire cells was calculated. The well was observed over 5 or more visual fields (at least 2 % of the entire surface area of the well) continuous to the left and right from a mark put at the center of the well, and more than 200 cells was counted. One drug compound was used in 6 different concentrations at most, and three runs were conducted for each concentrations.
Mouse neuroblastoma cells NS-20Y were similarly cultured in a dish coated with polyornithine, and the effects of the compounds were examined.

| SMILES | LD50 at 24 h (Acute toxicity on mice) | Number of cells having neurites with a length at least two times the diameter of each cell/total number of cells ([1]; 0.03 mM) | Number of cells having neurites with a length at least two times the diameter of each cell/total number of cells ([1]; 0.1 mM) | Number of cells having neurites with a length at least two times the diameter of each cell/total number of cells ([1]; 0.3 mM) | Number of cells having neurites with a length at least two times the diameter of each cell/total number of cells ([1]; 1 mM) | Number of cells in which neurites appeared/total number of cells ([2]; 24 hours, 0.2 mM) | Number of cells in which neurites appeared/total number of cells ([2]; 48 hours, 0.1 mM) | Number of cells in which neurites appeared/total number of cells ([2]; 24 hours, 0.1 mM) | Number of cells in which neurites appeared/total number of cells ([2]; 24 hours, 0.02 mM) | Number of cells in which neurites appeared/total number of cells ([2]; 48 hours, 0.02 mM) | Number of cells in which neurites appeared/total number of cells ([2]; 48 hours, 0.025 mM) | Number of cells in which neurites appeared/total number of cells ([2]; 48 hours, 0.05 mM) | Number of cells having neurites with a length at least two times the diameter of each cell/total number of cells ([1]; 0.01 mM) | Number of cells in which neurites appeared/total number of cells ([2]; 24 hours, 0.4 mM) | Number of cells in which neurites appeared/total number of cells ([2]; 48 hours, 0.4 mM) |
| --- | --- | --- | --- | --- | --- | --- | --- | --- | --- | --- | --- | --- | --- | --- | --- |
| COc1cc(C(=O)N(C)c2ccnc(N3CCC(c4ccccc4)CC3)n2)cc(OC)c1OC [Compound 280] | 500 to 1000 mg/kg | 4.5 ± 1.2% | 17.2 ± 1.3% | 13.4 ± 3.5% | 17.4 ± 2.6% | 3/50 | 8/53 |  |  |  |  |  |  |  |  |
| O=C(c1ccccc1)N(Cc1ccccc1)c1nccc(N2CCC(c3ccccc3)CC2)n1 [Compound 660] | 500 to 1000 mg/kg | 13.5 ± 1.3% | 9.1 ± 3.7% |  |  |  | 4/50 | 5/50 |  |  |  |  |  |  |  |
| COc1ccc(C(=O)N(C)c2ccnc(N3CCC(c4ccccc4)CC3)n2)cc1 [Compound 272] | > 1000 mg/kg | 4.8 ± 1.3% | 30.9 ± 2.8% | 15.9 ± 0.5% | 17.0 ± 4.3% | 24/50 | 17/50 | 33/50 |  |  |  |  |  |  |  |
| CN(C(=O)C=Cc1ccccc1)c1ccnc(N2CCC(c3ccccc3)CC2)n1 [Compound 170-2] | 500 to 1000 mg/kg |  | 14.7 ± 1.1% | 5.6 ± 2.1% | 13.9 ± 3.0% |  | 2/50 | 3/50 |  |  |  |  |  |  |  |
| CN(C(=O)c1ccccc1)c1ccnc(N2CCN(c3ccccc3)CC2)n1 [Compound 360] | > 1000 mg/kg | 6.5 ± 0.7% | 10.0 ± 0.7% |  |  |  | 4/50 | 18/50 | 8/50 |  |  |  |  |  |  |
| CN(C(=O)c1ccc(-c2ccccc2)cc1)c1ccnc(N2CCC(c3ccccc3)CC2)n1 [Compound 288] | 500 to 1000 mg/kg | 1.4 ± 0.1% | 3.3 ± 0.9% | 3.8 ± 1.9% | 5.1 ± 2.7% |  | 2/50 | 2/52 |  |  |  |  |  |  |  |
| CCCN(C(=O)c1ccccc1)c1ccnc(N2CCC(c3ccccc3)CC2)n1 [Compound 184] | > 1000 mg/kg |  | 18.8 ± 4.7% | 16.0 ± 2.4% |  |  |  | 5/48 | 8/50 | 3/50 |  |  |  |  |  |
| CN1C(=O)Cc2cnc(N3CCN(C(c4ccccc4)c4ccccn4)CC3)nc21 (centres unmarked) [Compound 3192] | 500 to 1000 mg/kg |  | 9.7 ± 1.1% | 3.7 ± 3.2% |  |  |  |  | 6/50 | 4/50 |  |  |  |  |  |
| CC1CCN(c2nccc(N(C)C(=O)c3ccccc3)n2)CC1 [Compound 144] | > 1000 mg/kg |  | 13.7 ± 7.8% | 33.8 ± 8.6% |  |  | 31/50 | 37/50 |  |  | 6/50 | 8/52 |  |  |  |
| CN(C(=O)c1ccco1)c1nccc(N2CCC(c3ccccc3)CC2)n1 [Compound 684] | 500 to 1000 mg/kg | 5.8 ± 2.0% | 16.4 ± 2.8% |  |  |  |  | 2.50 |  |  |  | 2/50 | 3.8 ± 0.5% |  |  |
| Cc1cc(N(C)C(=O)c2ccccc2)nc(N2CCC(c3ccccc3)CC2)n1 [Compound 400] | 500 to 1000 mg/kg |  |  | 11.4 ± 4.3% | 16.0 ± 2.7% |  | 3/50 | 9/50 |  |  |  |  |  | 30/53 | 3/48 |
| CON(C(=O)c1ccccc1)c1ccnc(N2CCC(c3ccccc3)CC2)n1 [Compound 2318] | 500 to 1000 mg/kg | 7.7 ± 1.4% | 35.1 ± 1.3% | 18.6 ± 5.2% | 8.8 ± 1.3% |  |  |  |  |  |  |  |  |  |  |
| CN1C(=O)Cc2cnc(N3CCN(C(c4ccc(Cl)cc4)c4ccc(Cl)cc4)CC3)nc21 [Compound 3176] | 500 to 1000 mg/kg | 7.3 ± 3.3% | 23.1 ± 4.8% | 21.2 ± 4.9% | 14.6 ± 5.0% |  |  |  |  |  |  |  |  |  |  |
